In ChEMBL document CHEMBL1131639, “Structural analysis of thrombin complexed with potent inhibitors incorporating a phenyl group as a peptide mimetic and aminopyridines as guanidine substitutes” (J Med Chem, 1998) one finds Ki0, IC50 and Ki data, which are given here for three molecules.

In test [1] the target is T1, Prothrombin (Homo sapiens, UniProt P00734). As to the kind of experiment: (§1) Compound was evaluated for the inhibition of thrombin.
Test [2] concerns the target Integrin alpha-IIb/beta-3 (Homo sapiens, UniProt P05106+P08514). Nature of the test: Compound was evaluated for inhibition against Fibrinogen Receptor. The format is protein-complex assay.
Test [3] addresses T1, Prothrombin. The description is as §1. This is another data set of the same source.

Where a SMILES comes first, the peptide text is derived from it.

Sequence of Integrin alpha-IIb/beta-3 (P05106 27-788 limits assumed): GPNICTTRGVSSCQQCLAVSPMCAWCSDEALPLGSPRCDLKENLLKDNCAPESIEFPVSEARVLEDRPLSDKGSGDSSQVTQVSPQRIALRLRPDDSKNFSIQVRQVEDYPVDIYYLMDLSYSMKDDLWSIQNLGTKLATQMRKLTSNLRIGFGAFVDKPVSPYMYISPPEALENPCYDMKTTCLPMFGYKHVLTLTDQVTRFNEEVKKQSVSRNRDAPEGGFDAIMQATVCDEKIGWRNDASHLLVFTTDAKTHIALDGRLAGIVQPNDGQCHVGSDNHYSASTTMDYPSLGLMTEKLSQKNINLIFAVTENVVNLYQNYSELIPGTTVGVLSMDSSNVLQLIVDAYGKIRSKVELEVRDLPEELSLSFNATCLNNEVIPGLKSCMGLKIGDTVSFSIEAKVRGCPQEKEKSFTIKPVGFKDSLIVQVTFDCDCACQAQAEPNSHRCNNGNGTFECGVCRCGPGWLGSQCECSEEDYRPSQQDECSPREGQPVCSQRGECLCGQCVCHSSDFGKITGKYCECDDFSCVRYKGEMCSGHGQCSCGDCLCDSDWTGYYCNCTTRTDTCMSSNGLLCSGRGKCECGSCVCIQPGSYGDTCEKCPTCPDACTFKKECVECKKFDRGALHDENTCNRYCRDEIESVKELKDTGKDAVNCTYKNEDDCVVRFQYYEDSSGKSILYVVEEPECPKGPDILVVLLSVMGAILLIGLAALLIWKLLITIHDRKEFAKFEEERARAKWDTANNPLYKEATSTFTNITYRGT
Sequence of Integrin alpha-IIb/beta-3 (P08514 32-887 limits assumed): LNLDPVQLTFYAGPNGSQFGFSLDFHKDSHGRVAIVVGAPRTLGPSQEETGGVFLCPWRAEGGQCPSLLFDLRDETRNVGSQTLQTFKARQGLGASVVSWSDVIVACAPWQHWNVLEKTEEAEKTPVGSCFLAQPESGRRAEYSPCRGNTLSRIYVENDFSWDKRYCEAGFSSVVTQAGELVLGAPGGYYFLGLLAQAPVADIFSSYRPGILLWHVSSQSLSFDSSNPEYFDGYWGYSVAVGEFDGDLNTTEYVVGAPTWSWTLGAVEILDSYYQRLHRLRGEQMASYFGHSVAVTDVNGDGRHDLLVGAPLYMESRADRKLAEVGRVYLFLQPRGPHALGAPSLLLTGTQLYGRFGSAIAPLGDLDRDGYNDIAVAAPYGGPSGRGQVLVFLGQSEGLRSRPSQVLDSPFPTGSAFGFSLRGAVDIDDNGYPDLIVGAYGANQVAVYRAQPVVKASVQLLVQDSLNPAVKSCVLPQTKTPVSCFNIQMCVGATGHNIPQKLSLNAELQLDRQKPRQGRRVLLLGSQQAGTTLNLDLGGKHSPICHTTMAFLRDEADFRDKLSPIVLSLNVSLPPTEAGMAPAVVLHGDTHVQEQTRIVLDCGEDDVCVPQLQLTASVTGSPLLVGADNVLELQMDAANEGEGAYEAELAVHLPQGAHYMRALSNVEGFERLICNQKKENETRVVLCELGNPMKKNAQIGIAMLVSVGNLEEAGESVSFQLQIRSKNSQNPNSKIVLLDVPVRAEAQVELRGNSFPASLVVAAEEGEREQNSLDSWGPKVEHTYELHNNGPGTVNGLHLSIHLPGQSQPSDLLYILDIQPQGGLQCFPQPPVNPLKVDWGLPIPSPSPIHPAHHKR
Sequence of Integrin alpha-IIb/beta-3 (P08514 891-1039 limits assumed): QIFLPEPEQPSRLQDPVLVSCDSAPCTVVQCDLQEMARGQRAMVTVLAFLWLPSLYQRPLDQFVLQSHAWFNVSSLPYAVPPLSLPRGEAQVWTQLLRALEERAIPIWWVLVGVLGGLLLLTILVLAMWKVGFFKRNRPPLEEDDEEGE

The molecule `CC1CCN(C(=O)[C@H](CCCNc2ccc(N)cn2)NS(=O)(=O)c2cccc3c(N(C)C)cccc23)CC1` yielded a Ki0 at Prothrombin [1] of 360 nM. The molecule `NC(N)=NCCCC[C@H](N)C(=O)NCC(=O)N[C@@H](CC(=O)O)C(=O)N[C@@H](Cc1cc2ccccc2[nH]1)C(=O)O` (HELM PEPTIDE1{[N=C(N)NCCCC[C@H](N)C(=O)[*:2]].G.D.[O=C(O)[C@H](Cc1cc2ccccc2[nH]1)N[*:1]]}$$$$V2.0) yielded an IC50 in test [2] of 1700 nM. In other words, the single-digit micromolar range. At Prothrombin [3], `NC(N)=NCCCCNC(=O)[C@@H]1CCCN1C(=O)[C@H](N)Cc1ccccc1` (HELM PEPTIDE1{[dF].P.[N=C(N)NCCCCN[*:1]]}$$$$V2.0) returned a Ki of 180 nM.
